Assay results from ChEMBL document CHEMBL1122261, “Synthesis of three potential inhibitors of leukotriene biosynthesis” (1983).

Legend:
Type in all cases: functional
Homo sapiens [1] = species on record: Homo sapiens; experiment: In vitro effect on lipoxygenase activity in intact human polymorphonuclear leukocytes at a concentration of 10 e-4 M on formation of Leukotriene B4 (LTB4)
Homo sapiens [2] = species on record: Homo sapiens; experiment: In vitro effect on lipoxygenase activity in intact human polymorphonuclear leukocytes at a concen of 10 e-4 M on formation of 5-HETE
Homo sapiens [3] = species on record: Homo sapiens; experiment: In vitro effect on lipoxygenase activity in intact human polymorphonuclear leukocytes at a concentration of 10 e-4 M on formation of 5-HETE

Compound | Effect (Homo sapiens [1]) | Effect (Homo sapiens [2]) | Effect (Homo sapiens [3])
CCCCC/C=C\C/C=C\C/C=C\Cc1ccccc1CCCC(=O)O | -91% | -94% | –
CCCCC/C=C\C/C=C\C(C)(C)/C=C\C/C=C\CCCC(=O)O | 40% | 60% | –
CCCCC/C=C\C/C=C\C/C=C\C(C)(C)/C=C\CCCC(=O)O | 19% | – | 29%
